Measured values taken from US5462726A, “Method of inhibiting side effects of solvents containing ricinoleic acid or castor oil or derivatives thereof employing a thromboxane A2 receptor antagonist and pharmaceutical compositions containing such solvents” (priority 1993, dated 1995).
≈ marks a conversion by molar mass, not a printed value. Entries after “also recorded” stand apart in the source; their conditions may differ. Structures can show the parent of a compound that is named as a salt. Where two headings read alike, the source gives them in different places.

Experiments:
[1] = target: T1, CsA-induced force development in the jugular vein (thromboxane A2 receptors) (Oryctolagus cuniculus, UniProt Q6WQI8); assay: Inhibition of CsA-induced force in the jugular vein; format: cell-based, rabbit; settings: for Effect on potency and maximal contractile effect of CsA (words): phentolamine 10 μM
T1 sequence (Q6WQI8 1-233): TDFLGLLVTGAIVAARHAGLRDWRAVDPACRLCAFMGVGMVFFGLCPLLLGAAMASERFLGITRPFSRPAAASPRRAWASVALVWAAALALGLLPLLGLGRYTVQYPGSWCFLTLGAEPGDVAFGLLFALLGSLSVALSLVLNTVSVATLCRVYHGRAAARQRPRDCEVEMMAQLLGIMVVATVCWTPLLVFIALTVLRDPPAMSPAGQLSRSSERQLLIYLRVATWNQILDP
Protocol: (§1) Male New Zealand white rabbits were euthanized by intravenous barbiturate overdose. The thoracic aorta and the left and right external jugular veins were then removed into warm (37° C.) physiological salt solution (PSS) of the following composition (mM): NaCl, 118.4; KCl, 4.7; CaCl2, 2.5; MgSO4, 1.2; NaHCO3, 24.9; KH2 PO4, 1.2; glucose, 11.1 and EDTA, 0.023; gassed with 95% O2 /5% CO2, pH 7.4. The vessels were cleaned of fat and loose adventitia and subsequently cut into rings 3-4 mm in width. The endothelium was removed from the rings, unless otherwise indicated, by gently rotating a metal probe in the lumen of the ring. The rings were then suspended in water-jacketed (37° C.) 10 ml tissue baths between two wire holders, one of which was attached to a fixed hook and the other to an isometric force transducer. Resting tension was set at 4 g for the aorta and 1 g for the jugular vein. The venous tissues were allowed to stabilize for a period of one hour and then challenged with a maximally effective concentration of bradykinin (1 μM) to evoke a tonic contracture. This response was used as a comparative reference response. Carbachol (1 μM) was introduced into the bath following stabilization of the bradykinin contracture to test for the presence of endothelium. […] The tissues were washed multiple times with fresh PSS and allowed to recover for one hour following complete relaxation from the previous bradykinin response. […] Inhibitors (enzyme or receptor) or their vehicle were introduced into the tissue bath 30 mins prior to the addition of stimulant.
(§2) Cremophor and ricinoleic acid (Sigma Chemical company) were also diluted in ethanol. […] Ricinoleic acid was diluted in ethanol to produce final bath concentrations of (μg/ml; final bath concentration of ethanol in parentheses): 0.1 (0.1%), 0.3 (0.3%), 1.0 (0.37%), 3.0 (0.57%), 10 (0.64%), 30 (0.84%). For reference, 0.1-30 μg/ml ricinoleic acid corresponds to a molar concentration range of 0.335-100.50 μM.
(§3) Force (mean±S.E.) is expressed as a percentage of the corresponding bradykinin or phenylephrine reference response. KB values were determined by Schild analysis and KBapp by the following formula: KBapp =[antagonist]/agonist concentration ratio-1, where agonist concentration ratio=agonist EC50 measured in presence of antagonist/agonist EC50 measured in presence of vehicle. The statistical significance between means was determined using Student's t-test with p<0.05 considered statistically significant.

[2] = system: Cremophor-induced force development in the jugular vein (thromboxane A2 receptors); assay: Inhibition of Cremophor-induced force in the jugular vein; format: cell-based, rabbit; settings: for Effect on vasoconstrictor effects of Cremophor (words): indomethacin 10 μM
Protocol: as §1, §2, §3

thromboxane A2 receptor = settings: dog coronary artery, Cocks et al 1990; cited from earlier work
jugular vein [3] = assay: Force development in isolated jugular vein rings; format: cell-based, rabbit (male New Zealand white); settings: for Force development / vasoconstriction (result in words): cumulative addition, isolated vessel; for EC50: read-out: EC50 for ricinoleic acid-induced force
Protocol: as §1, §2, §3

aorta = assay: Force development in isolated thoracic aorta rings; format: cell-based, rabbit (male New Zealand white)
Protocol: as §1, with “stimulant. […]” for “stimulant.”
as §3

rat aorta = assay: Ricinoleic acid force development in rat aorta; format: cell-based
[4] = Solubility in physiological salt solution bath; format: physicochemical; settings: pH 7.4, ricinoleic acid in tissue bath, read-out: Concentration at which precipitation begins
[5] = system: tissues with an intact endothelium; assay: Relaxation of endothelium-intact tissues by carbachol; format: cell-based, rabbit; settings: Oryctolagus cuniculus; carbachol (1 μM) on bradykinin contracture
Protocol: (§4) Male New Zealand white rabbits were euthanized by intravenous barbiturate overdose. The thoracic aorta and the left and right external jugular veins were then removed into warm (37° C.) physiological salt solution (PSS) of the following composition (mM): NaCl, 118.4; KCl, 4.7; CaCl2, 2.5; MgSO4, 1.2; NaHCO3, 24.9; KH2 PO4, 1.2; glucose, 11.1 and EDTA, 0.023; gassed with 95% O2 /5% CO2, pH 7.4. The vessels were cleaned of fat and loose adventitia and subsequently cut into rings 3-4 mm in width. The endothelium was removed from the rings, unless otherwise indicated, by gently rotating a metal probe in the lumen of the ring. The rings were then suspended in water-jacketed (37° C.) 10 ml tissue baths between two wire holders, one of which was attached to a fixed hook and the other to an isometric force transducer. Resting tension was set at 4 g for the aorta and 1 g for the jugular vein. The venous tissues were allowed to stabilize for a period of one hour and then challenged with a maximally effective concentration of bradykinin (1 μM) to evoke a tonic contracture. This response was used as a comparative reference response. Carbachol (1 μM) was introduced into the bath following stabilization of the bradykinin contracture to test for the presence of endothelium. […]

thromboxane A2 receptors = assay: Potency of U-46,619 across rabbit jugular vein, rabbit aorta and rat aorta; format: cell-based; settings: rabbit aorta, rat aorta, present study and cited work
[6] = target: T2, thromboxane A2 /prostaglandin endoperoxide receptor (Oryctolagus cuniculus, UniProt Q6WQI8); assay: Antagonism of U-46,619-induced force in the jugular vein; format: cell-based; settings: rabbit jugular vein
T2 sequence (Q6WQI8 1-233): T1 sequence (Q6WQI8 1-233)
Protocol: as §1, with “stimulant. […]” for “stimulant.”
as §3

[7] = system: Cremophor-induced force in the aorta (thromboxane A2 receptors); assay: Antagonism of Cremophor-induced force in the aorta; format: cell-based, rabbit
Protocol: as §4, with “vein.” for “vein. The venous tissues were allowed to stabilize for a period of one hour and then challenged with a maximally effective concentration of bradykinin (1 μM) to evoke a tonic contracture. This response was used as a comparative reference response. Carbachol (1 μM) was introduced into the bath following stabilization of the bradykinin contracture to test for the presence of endothelium.”
as §3

[8] = system: ricinoleic acid-induced force in the jugular vein (thromboxane A2 receptors); assay: Antagonism of ricinoleic acid-induced force in the jugular vein; format: cell-based, rabbit; settings: for Effect on ricinoleic acid-induced force (words): indomethacin, vein only
Protocol: as §1, with “stimulant. A similar procedure was followed for the aorta except the effects of carbachol (1 μM) were tested against a submaximal concentration of phenylephrine (0.3 μM) and 30 μM phenylephrine was used to establish a reference contracture.” for “stimulant.”
as §2, §3

[9] = target: T3, ricinoleic acid-induced force in the aorta (thromboxane A2 receptors) (Oryctolagus cuniculus, UniProt Q6WQI8); assay: Antagonism of ricinoleic acid-induced force in the aorta; format: cell-based, rabbit
T3 sequence (Q6WQI8 1-233): T1 sequence (Q6WQI8 1-233)
Protocol: as §1, with “stimulant. […]” for “stimulant.”
as §3

jugular vein [10] = assay: Effect on ethanol-induced contraction of the jugular vein; format: cell-based, rabbit; settings: 0.1 or 1 μM BMS-180291; n=3
[11] = target: thromboxane A2 /prostaglandin endoperoxide receptor; settings: against U-46,619-induced force; rat aorta; Ogletree et al 1993; cited from earlier work
[12] = target: T2, thromboxane A2 /prostaglandin endoperoxide receptor; settings: against U-46,619-induced force; rabbit aorta; S. Moreland, unpublished; cited from earlier work
[13] = system: U-46,619-evoked platelet shape change; settings: Ogletree et al 1993; cited from earlier work
[14] = system: U-46,619-induced platelet aggregation; settings: Ogletree et al 1993; cited from earlier work

Compound `COc1ccc(Cl)cc1C(=O)NCCc1ccc(S(=O)(=O)NC(=O)NC2CCCCC2)cc1` [glyburide] has a Schild slope ([1]; against CsA-induced force) of 0.7, a Kb ([1]; against CsA-induced force, Schild analysis, read-out: KB) of 600 nM and a Kb ([1]; against CsA-induced force, glyburide 10 μM, n=4, read-out: KBapp) of 1500 nM. The inhibition at 10 µM ([1]; read-out: Inhibition (reversal) of CsA-induced contraction) was 57.1%, the Kb ([2]; Oryctolagus cuniculus, against Cremophor-induced force, glyburide 10 μM, n=3, read-out: KBapp) was 900 nM and the Kb (thromboxane A2 receptor) was 600 nM.
In the case of `CCO` [ethanol], the Emax at 0.44 % (jugular vein [3]; Oryctolagus cuniculus, cumulative addition of 0.44% ethanol, n=3, read-out: Force as % of bradykinin reference force) is reported as 24.1 ± 3.3% and the “Force development / vasoconstriction (result in words)” value (“Force development / vasoconstriction” for short) (jugular vein [3]) is reported as “constrict the vein”.
`CCCCCC[C@@H](O)C/C=C\CCCCCCCC(=O)O` [ricinoleic acid] showed an EC50 (jugular vein [3]; Oryctolagus cuniculus, control for indomethacin comparison, n=4) of 0.17 ± 0.05 µg/mL, an EC50 (jugular vein [3]; Oryctolagus cuniculus, in presence of indomethacin, n=4) of 0.4 ± 0.11 µg/mL and an EC50 (jugular vein [3]; Oryctolagus cuniculus, jugular vein, molar conversion) of 800 nM. For the same compound, the EC50 (jugular vein [3]; Oryctolagus cuniculus, jugular vein, n=9) was 0.24 ± 0.04 µg/mL, the “Force development / vasoconstriction” value (jugular vein [3]) was “cause vasoconstriction” and the “Force development / vasoconstriction” value (jugular vein [3]; listed as Ricinoleic acid) was “concentration-dependent increases in force”. The “Fold more potent than Cremophor” value (jugular vein [3]; in the vein) was 165 times, the “Fold more potent in vein than in aorta” value (jugular vein [3]; ricinoleic acid, vein vs aorta) was “approximately 20 times” and the “Thromboxane A2 agonist character” value (jugular vein [3]; summary conclusion) was “weak thromboxane A2 agonist”. For the same compound, the EC50 (aorta; Oryctolagus cuniculus, rabbit aorta, n=5, read-out: EC50 for ricinoleic acid-induced force) was 4.7 ± 0.7 µg/mL (≈ 15.7 µM), the “Force development (result in words)” value (aorta; aorta) was “concentration-dependent increases in force” and the “Fold more potent than Cremophor” value (aorta; in the aorta) was 326 times. The Emax at 100 µg/mL (rat aorta; 100 μg/ml ricinoleic acid, rat aorta, n=4, read-out: Force as % of maximum phenylephrine-induced response) was 18.8 ± 2.5%, the EC50 (rat aorta; rat aorta, n=4, read-out: EC50 for ricinoleic acid-induced force) was > 10000 nM and the “Sensitivity of rat aorta” value (rat aorta; vs vein or rabbit aorta) was “considerably less sensitive”. For the same compound, the solubility [4] was ≥ 100 µg/mL.
With `Cc1ccc(N(CC2=NCCN2)c2cccc(O)c2)cc1` [phentolamine] the “Effect on potency and maximal contractile effect of CsA (words)” value [1] was “insensitive to phentolamine; also recorded: failed to antagonize the effects of CsA” and the “Effect on potency and maximal contractile effect of CsA (words)” value ([1]; listed as Phentolamine) was “significantly affected neither the potency nor the maximal contractile effect of CsA”.
Work on `C[N+](C)(C)CCOC(N)=O` [carbachol] yielded a Percent relaxation at 1 µM [5] of 50 to 100%.
In the case of `CCCCCC(O)C=CC1C2CC(CO2)C1CC=CCCCC(=O)O` (centres unmarked) [U-46,619, 11,9-epoxymethano-PGH2], the “Potency across the three tissues” value (thromboxane A2 receptors) is reported as “approximately equal potency in all three tissues”.
With `CCCCCNC(=O)c1coc(C2C3CCC(O3)C2Cc2ccccc2CCC(=O)O)n1` (stereo not drawn) [BMS-180291, [1S-[1α, 2α, 3α, 4α)]-2-[[3-[[4-(pentylamino)carbonyl]-2-oxazolyl]-7-oxabicyclo [2.2.1]hept-2-yl]-methyl]benzenepropanoic acid, sodium salt] the inhibition at 0.1 µM ([2]; Oryctolagus cuniculus, 0.1 μM BMS-180291, Cremophor 39 μg/ml, n=4, read-out: Relaxation of Cremophor-precontracted jugular vein) was 85.6 ± 3.9%, the “Nature of antagonism of Cremophor-induced responses” value ([2]; preincubation with BMS-180291 (10-300 nM), sodium salt) was “consistent with non-competitive antagonism; also recorded: apparently non-competitive fashion” and the Kb ([6]; against U-46,619-induced force) was 3.6 nM. The Schild slope ([6]; against U-46,619-induced force) was 1.0, the “Nature of antagonism of U-46,619-induced force” value ([6]; sodium salt) was “apparently competitive antagonist” and the “Effect on Cremophor-induced force in the aorta” value ([7]; BMS-180291) was “inhibited”. The Kb ([7]; Oryctolagus cuniculus, against Cremophor-induced force, assuming competitive antagonism, 0.03 μM BMS-180291 only, read-out: KBapp) was 6.4 nM, the Kb ([8]; Oryctolagus cuniculus, against ricinoleic acid, vein, assuming competition, 0.03 and 0.1 μM BMS-180291 only, read-out: KBapp) was 1.9 nM and the “Antagonism of ricinoleic acid-induced force” value ([8]; vein) was “concentration-dependent antagonism”. For the same compound, the Schild slope ([9]; against ricinoleic acid, rabbit aorta) was 0.70, the Kb ([9]; against ricinoleic acid, rabbit aorta, assuming competition) was 4.3 nM and the “Antagonism of ricinoleic acid-induced force” value ([9]; aorta) was “concentration-dependent antagonism”. For the same compound, the “Effect on contractile effects of ethanol” value (jugular vein [10]) was “completely refractory”, the Kb [11] was 0.6 nM and the Kb [12] was 4 nM. The “Nature of antagonism of platelet shape change” value [13] was “apparently competitive fashion” and the “Nature of inhibition of platelet aggregation” value [14] was “apparently non-competitive fashion”.
For `CC1(C)Oc2ccc(C#N)cc2C(N2CCCC2=O)C1O` (centres unmarked) [cromakalim], the “Effect on CsA-induced force” value ([1]; CsA 3 μg/ml, present results) was “evoke relaxation of CsA (3 μg/ml CsA)-induced force”.
For `COc1ccc2c(c1)c(CC(=O)O)c(C)n2C(=O)c1ccc(Cl)cc1` [indomethacin], the “Effect on vasoconstrictor effects of Cremophor (words)” value [2] was “The contractile effects of neither ricinoleic acid nor Cremophor were prevented”, the “Effect on vasoconstrictor effects of Cremophor (words)” value ([2]; listed as Indomethacin) was “failed to significantly inhibit the vasoconstrictor effects of Cremophor” and the “Effect on ricinoleic acid-induced force (words)” value [8] was “The contractile effects of neither ricinoleic acid nor Cremophor were prevented”. The “Effect on ricinoleic acid-induced force (words)” value ([8]; listed as Indomethacin) was “no significant effect on ricinoleic acid-induced force”.
